Measured values reported in US11857669B2, “Treatment of a disease of the gastrointestinal tract with a JAK inhibitor and devices” (BIORA THERAPEUTICS, INC., priority 2016, dated 2024).

Experiment: Tacrolimus tissue pharmacokinetics, oral vs intra-cecal ingestible device delivery
Format: in vivo, Yorkshire-Cross farm swine
Conditions: swine; intra-cecally vs orally administered; 12 hours post-dose; FIG. 76
Description: The primary objective of this study was to compare the tissue, plasma, rectal sample, and GI content pharmacokinetics of tacrolimus through oral versus intra-cecal ingestible device delivery in normal Yorkshire-Cross farm swine.
No further randomization procedure was employed.
Animals in Group 1 received an ingestible device containing 0.8 mL of vehicle solution (80% alcohol, 20% HCO-60). Animals in Group 2 received orally […] liquid formulation of tacrolimus at 4 mg/0.8 mL per animal (Prograf: 5 mg/mL). Animals in Group 3 received intra-cecally an ingestible device containing tacrolimus at 1 mg in 0.8 mL per ingestible device. Animals in Group 4 received intra-cecally an ingestible device containing tacrolimus at 2 mg in 0.8 mL per ingestible device. Animals in Group 5 received intra-cecally an ingestible device containing tacrolimus at 4 mg in 0.8 mL per ingestible device. […]
For tissue necropsy, small intestine fluid and cecal fluid were collected separately from all the animals into two separate square plastic bottles, and stored at −20° C. The length and diameter of the cecum and the colon was measured from one animal in each group and recorded for reference. […] All samples were weighed, and the tissue sample weights were recorded. […] Around 3 grams of the total punched sample were collected into a pre-weighed 15-mL conical tube, and the tissue weight was recorded. […]

Which “mean concentration of tacrolimus in the cecum tissue and the proximate colon tissue” value does the source give for `C=CC[C@@H]1/C=C(\C)C[C@H](C)C[C@H](OC)[C@H]2O[C@@](O)(C(=O)C(=O)N3CCCC[C@H]3C(=O)O[C@H](/C(C)=C/[C@@H]3CC[C@@H](O)[C@H](OC)C3)[C@H](C)[C@@H](O)CC1=O)[C@H](C)C[C@@H]2OC` [tacrolimus] here?
Its value is “higher”.
